Where a name gives a salt, the structure may show the parent alone.
Molecular target: PRMT5/MEP50 complex (Homo sapiens (Human), UniProt O14744)
Experiment: Biochemical assay: PRMT5/MEP50 methylation of histone H4 based AcH4-23, SPA readout
Details: PRMT5/MEP50 2.5 nM, 300 nM AcH4-23, 1 μM 3H-SAM
Protocol: Biochemical Assay Protocol
Compounds were solubilized and 3-fold diluted in 100% DMSO. […] Standard reactions were performed in a total volume of 30 μl in assay buffer, with 300 nM histone H4 based AcH4-23 (Anaspec: AS-65002) as substrate. To this was added the PRMT5/MEP50 complex diluted to provide a final assay concentration of 2.5 nM and the compounds were allowed to preincubate for 20 minutes at 37° C. The reaction was initiated by adding S-[3H-methyl]-adenosyl-L-methionine (PerkinElmer: NET155001MC) to final concentration of 1 μM. Following a 30 minutes incubation at 37° C., the reaction was stopped by adding 25 μL of 8M Guanidine HCl. Prepare streptavidin YSI SPA beads (Perkinelmer: RPNQ0012) at 0.3 mg/mL in assay buffer. To each reaction, add 150 μL of SPA beads suspension, and incubated while shaking at room temperature for 30 minutes. The plate was centrifuged at 100×g for 30 second before reading in a scintillation counter. IC50 values were determined by fitting the data to the standard 4 parameters with Hill Slope using GraphPad Prism software.

Sequence of PRMT5/MEP50 complex (O14744 whole entry): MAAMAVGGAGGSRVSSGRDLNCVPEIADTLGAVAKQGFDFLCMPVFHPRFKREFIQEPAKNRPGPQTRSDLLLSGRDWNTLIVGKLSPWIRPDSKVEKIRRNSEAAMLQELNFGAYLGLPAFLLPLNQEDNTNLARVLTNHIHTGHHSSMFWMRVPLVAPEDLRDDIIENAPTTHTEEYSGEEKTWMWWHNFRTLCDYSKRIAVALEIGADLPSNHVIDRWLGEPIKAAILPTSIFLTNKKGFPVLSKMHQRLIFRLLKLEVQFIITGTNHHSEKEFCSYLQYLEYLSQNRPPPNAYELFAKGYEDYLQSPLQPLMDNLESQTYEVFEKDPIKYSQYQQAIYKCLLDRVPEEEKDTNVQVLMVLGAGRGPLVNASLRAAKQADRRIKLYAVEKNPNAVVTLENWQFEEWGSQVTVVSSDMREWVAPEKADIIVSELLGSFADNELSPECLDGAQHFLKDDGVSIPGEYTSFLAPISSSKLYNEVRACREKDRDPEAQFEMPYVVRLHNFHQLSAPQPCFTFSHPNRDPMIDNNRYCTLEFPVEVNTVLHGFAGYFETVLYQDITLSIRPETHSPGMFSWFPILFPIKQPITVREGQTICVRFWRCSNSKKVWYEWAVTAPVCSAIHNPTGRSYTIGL
Sequence of PRMT5/MEP50 complex (Q9BQA1 whole entry partner): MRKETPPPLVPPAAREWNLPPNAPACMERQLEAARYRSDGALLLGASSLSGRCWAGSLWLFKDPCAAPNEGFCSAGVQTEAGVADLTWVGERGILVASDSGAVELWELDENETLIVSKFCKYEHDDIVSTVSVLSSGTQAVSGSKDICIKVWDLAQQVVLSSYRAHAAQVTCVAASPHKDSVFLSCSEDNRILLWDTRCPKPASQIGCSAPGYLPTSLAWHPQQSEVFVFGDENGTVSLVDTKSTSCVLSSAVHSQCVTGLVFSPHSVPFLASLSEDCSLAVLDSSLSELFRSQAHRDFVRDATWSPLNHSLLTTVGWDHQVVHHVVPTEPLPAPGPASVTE

| SMILES | IC50 [nM] |
| --- | --- |
| Cc1ncnc2c1ccn2[C@@H]1O[C@H]([C@@H]2OC[C@@H](F)c3cc(Cl)ccc32)[C@@H](O)[C@H]1O [Example 92, (2S,3S,4R,5R)-2-((1R,4S)-6-chloro-4-fluoroisochroman-1-yl)-5-(4-methyl-7H-pyrrolo[2,3-d]pyrimidin-7-yl)tetrahydrofuran-3,4-diol] | 20 |
| Cc1ncnc2c1ccn2[C@@H]1O[C@H]([C@@H]2OCCc3c2ccc(F)c3F)[C@@H](O)[C@H]1O [Example 79, (2S,3S,4R,5R)-2-((R)-5,6-difluoroisochroman-1-yl)-5-(4-methyl-7H-pyrrolo[2,3-d]pyrimidin-7-yl)tetrahydrofuran-3,4-diol] | 8.4 |
| Nc1ncnc2c1ccn2[C@@H]1O[C@H]([C@@H]2OC[C@@H](F)c3cc(Cl)ccc32)[C@@H](O)[C@H]1O [Example 93, (2R,3R,4S,5S)-2-(4-aminopyrrolo[2,3-d]pyrimidin-7-yl)-5-[(1R,4S)-6-chloro-4-fluoro-isochroman-1-yl]tetrahydrofuran-3,4-diol] | 14 |
| Cc1ncnc2c1ccn2[C@@H]1O[C@H]([C@@H]2OCCCc3cc(Cl)ccc32)[C@@H](O)[C@H]1O [Example 101, (2S,3S,4R,5R)-2-((R)-7-chloro-1,3,4,5-tetrahydrobenzo[c]oxepin-1-yl)-5-(4-methyl-7H-pyrrolo[2,3-d]pyrimidin-7-yl)tetrahydrofuran-3,4-diol] | 1580 |
| Nc1ncnc2c1ccn2[C@@H]1O[C@H]([C@@H]2OCC(F)(F)c3ccccc32)[C@@H](O)[C@H]1O [Example 78, (2R,3R,4S,5S)-2-(4-amino-7H-pyrrolo[2,3-d]pyrimidin-7-yl)-5-((R)-4,4-difluoroisochroman-1-yl)tetrahydrofuran-3,4-diol] | 6.7 |
| Cc1cc2c(cc1Cl)CCO[C@H]2[C@H]1O[C@@H](n2ccc3c(N)ncnc32)[C@H](O)[C@@H]1O [Example 100, (2R,3R,4S,5S)-2-(4-amino-7H-pyrrolo[2,3-d]pyrimidin-7-yl)-5-((R)-6-chloro-7-methylisochroman-1-yl)tetrahydrofuran-3,4-diol] | 5.6 |
| Nc1ncnc2c1ccn2[C@@H]1O[C@H]([C@@H]2OC(=O)Cc3cc(Cl)ccc32)[C@@H](O)[C@H]1O [Example 82, (R)-1-((2S,3S,4R,5R)-5-(4-amino-7H-pyrrolo[2,3-d]pyrimidin-7-yl)-3,4-dihydroxytetrahydrofuran-2-yl)-6-chloroisochroman-3-one] | 585 |
| Nc1ncnc2c1ccn2[C@@H]1O[C@H]([C@H]2OCCc3cc(Cl)sc32)[C@@H](O)[C@H]1O [Example 91, (2R,3R,4S,5S)-2-(4-amino-7H-pyrrolo[2,3-d]pyrimidin-7-yl)-5-((R)-2-chloro-4,7-dihydro-5H-thieno[2,3-c]pyran-7-yl)tetrahydrofuran-3,4-diol] | 554 |
| Nc1ncnc2c1ccn2[C@@H]1C[C@H]([C@H]2OC(=O)c3cc(Cl)ccc32)[C@@H](O)[C@H]1O [Example 3B, (R)-3-((1S,2R,3S,4R)-4-(4-amino-6H-7I4-pyrrolo[2,3-d]pyrimidin-7-yl)-2,3-dihydroxycyclopentyl)-6-chloroisobenzofuran-1(3H)-one, hydrochloride] | 1020 |
| COC1Cc2cc(Cl)ccc2[C@H]([C@H]2O[C@@H](n3ccc4c(C)ncnc43)[C@H](O)[C@@H]2O)O1 (stereo partly drawn) [Example 44, (2S,3S,4R,5R)-2-((1R)-6-chloro-3-methoxyisochroman-1-yl)-5-(4-methyl-7H-pyrrolo[2,3-d]pyrimidin-7-yl)tetrahydrofuran-3,4-diol] | 606 |
| Cc1cc2c(cc1Cl)CCO[C@H]2[C@H]1O[C@@H](n2ccc3c(C)ncnc32)[C@H](O)[C@@H]1O [Example 99, (2S,3S,4R,5R)-2-((R)-6-chloro-7-methylisochroman-1-yl)-5-(4-methyl-7H-pyrrolo[2,3-d]pyrimidin-7-yl)tetrahydrofuran-3,4-diol] | 39.6 |
| Nc1ncnc2c1ccn2[C@@H]1C[C@H]([C@H]2OCc3cc(Cl)ccc32)[C@@H](O)[C@H]1O [Example 2A, (1R,2S,3R,5S)-3-(4-amino-7H-pyrrolo[2,3-d]pyrimidin-7-yl)-5-((R)-5-chloro-1,3-dihydroisobenzofuran-1-yl)cyclopentane-1,2-diol] | 680 |
| Nc1ncnc2c1ccn2[C@@H]1O[C@H]([C@@H]2OC(O)Cc3cc(Cl)ccc32)[C@@H](O)[C@H]1O (stereo partly drawn) [Example 43, (2R,3R,4S,5S)-2-(4-amino-7H-pyrrolo[2,3-d]pyrimidin-7-yl)-5-((1R)-6-chloro-3-hydroxyisochroman-1-yl)tetrahydrofuran-3,4-diol] | 19 |
| COC1Cc2cc(Cl)ccc2[C@H]([C@H]2O[C@@H](n3ccc4c(N)ncnc43)[C@H](O)[C@@H]2O)O1 (stereo partly drawn) [Example 42, (2R,3R,4S,5S)-2-(4-amino-7H-pyrrolo[2,3-d]pyrimidin-7-yl)-5-((1R)-6-chloro-3-methoxyisochroman-1-yl)tetrahydrofuran-3,4-diol] | 428 |
| Nc1ncnc2c1ccn2[C@@H]1O[C@H]([C@H]2OCc3cc(Cl)ccc32)[C@@H](O)[C@H]1O [Example 1B, (2R,3R,4S,5S)-2-(4-amino-7H-pyrrolo[2,3-d]pyrimidin-7-yl)-5-((S)-5-chloro-1,3-dihydroisobenzofuran-1-yl)tetrahydrofuran-3,4-diol] | 270 |
| Cc1ncnc2c1ccn2[C@@H]1O[C@H]([C@@H]2OC(O)Cc3cc(Cl)ccc32)[C@@H](O)[C@H]1O (stereo partly drawn) [Example 50, (2S,3S,4R,5R)-2-((1R)-6-chloro-3-hydroxyisochroman-1-yl)-5-(4-methyl-7H-pyrrolo[2,3-d]pyrimidin-7-yl)tetrahydrofuran-3,4-diol] | 59 |
| Cc1ncnc2c1ccn2[C@@H]1O[C@H]([C@@H]2OCc3ccc(Cl)cc32)[C@@H](O)[C@H]1O [Example 15, (2S,3S,4R,5R)-2-((R)-6-chloro-1,3-dihydroisobenzofuran-1-yl)-5-(4-methyl-7H-pyrrolo[2,3-d]pyrimidin-7-yl)tetrahydrofuran-3,4-diol] | 1 |
| Nc1ncnc2c1ccn2[C@@H]1O[C@H]([C@@H]2OCOCc3cc(Cl)ccc32)[C@@H](O)[C@H]1O [Example 81, (2R,3R,4S,5S)-2-(4-amino-7H-pyrrolo[2,3-d]pyrimidin-7-yl)-5-((R)-7-chloro-1,5-dihydrobenzo[e][1,3]dioxepin-1-yl)tetrahydrofuran-3,4-diol] | 41.5 |
| Cc1ncnc2c1ccn2[C@@H]1O[C@H]([C@@H]2OCC(F)(F)c3ccccc32)[C@@H](O)[C@H]1O [Example 76, (2S,3S,4R,5R)-2-((R)-4,4-difluoroisochroman-1-yl)-5-(4-methyl-7H-pyrrolo[2,3-d]pyrimidin-7-yl)tetrahydrofuran-3,4-diol] | 81 |
| Nc1ncnc2c1ccn2[C@@H]1O[C@H]([C@@H]2OCCc3c2ccc(F)c3F)[C@@H](O)[C@H]1O [Example 77, (2R,3R,4S,5S)-2-(4-amino-7H-pyrrolo[2,3-d]pyrimidin-7-yl)-5-((R)-5,6-difluoroisochroman-1-yl)tetrahydrofuran-3,4-diol] | 2.82 |
| Cc1ncnc2c1ccn2[C@@H]1O[C@H]([C@@H]2OC[C@H](F)c3cc(Cl)ccc32)[C@@H](O)[C@H]1O [Example 94, (2R,3R,4S,5S)-2-(4-methylpyrrolo[2,3-d]pyrimidin-7-yl)-5-[(1R,4R)-6-chloro-4-fluoro-isochroman-1-yl]tetrahydrofuran-3,4-diol] | 3.2 |
| Cc1ncnc2c1ccn2[C@@H]1O[C@H]([C@H]2OCCc3cc(Cl)ccc32)[C@@H](O)[C@H]1O [Example 80, (2S,3S,4R,5R)-2-((S)-6-chloroisochroman-1-yl)-5-(4-methyl-7H-pyrrolo[2,3-d]pyrimidin-7-yl)tetrahydrofuran-3,4-diol] | 1010 |
| Nc1ncnc2c1ccn2[C@@H]1O[C@H]([C@@H]2OCCCc3cc(Cl)ccc32)[C@@H](O)[C@H]1O [Example 102, (2R,3R,4S,5S)-2-(4-amino-6H-7I4-pyrrolo[2,3-d]pyrimidin-7-yl)-5-((R)-7-chloro-1,3,4,5-tetrahydrobenzo[c]oxepin-1-yl)tetrahydrofuran-3,4-diol, hydrochloride] | 6280 |

Reference: patent US10711007B2, “Selective inhibitors of protein arginine methyltransferase 5 (PRMT5)” (Prelude Therapeutics, Incorporated, priority 2018, dated 2020)
